# Measured values: patent US9586947B2, “Imidazoline derivatives, preparation methods thereof, and their applications in medicine” (priority 2012, dated 2017)
# Like-named read-outs stand apart in the source and are kept apart here.
# Key:
# [1] = tested on: PSA secretion of LNCaP cells; assay: Inhibitory activity on PSA secretion of LNCaP cells; format: cell-based; conditions: Homo sapiens, 96 h, read-out: IC50 (inhibition of PSA secretion of LNCaP cells)
# Experimental: The following in vitro assay was performed to determine the activity of the compounds of the present invention for inhibiting prostate specific antigen (PSA) secretion of LNCaP cells.
# (11). Testosterone culture medium: RIPM 1640 culture medium, 10% CS-FBS, 1% Pen Strep, 1 nM testosterone
# LNCaP cells were subcultured in cell culture medium, resuspended in active carbon culture medium, and then inoculated into a 96-well plate (100 μl/well) with an inoculation density of 5×10^4 cells/well.
# The test compounds were dissolved in DMSO (dimethyl sulfoxide) and prepared as a 10 mM stock solution. When used, the stock solution was diluted with 5×DMSO and then diluted with a threefold gradient to obtain 8 gradient concentrations. Then, the 8 gradient concentrations were each diluted with 20× testosterone culture medium, in order to ensure DMSO concentration in each culture system was 0.5%. Diluted test compounds remained to be tested.
# 10 μl of diluted test compounds were added to a 96-well plate and mixed gently. 10 μl of 0.5% DMSO diluted with active carbon culture medium was added to the blank group, and 10 μl of 0.5% DMSO diluted with testosterone culture medium was added to the control group. The 96-well plate was cultured in an incubator under the conditions of 37° C. and 5% CO2.
# After 4 days of incubation, 60 μl of cell cultural supernatants were collected, and the OD450 value per well was measured on a NOVO Star microplate reader using PSA kit (Abnova, KA0208).
# (§1) IC50 values were calculated from the data of the inhibition rates of the test compounds at various concentrations.
# LNCaP cells = assay: Proliferation inhibition of LNCaP cells (CCK-8); format: cell-based; conditions: Homo sapiens, 144 h, cultured 3 + 3 days, CCK-8, OD at 450 nm
# Experimental: The following in vitro assay was performed to determine the activity of the compounds of the present invention for inhibiting the proliferation of LNCaP cells.
# (1). Cell counting reagent CCK-8 (DOJINDO, CK04)
# See experimental procedure from Test Example 1.
# After LNCaP cells were cultured for 3 days, the culture medium, test compounds, blank group, and control group were renewed with half of the liquid volume, and were cultured for another 3 days. Then, all 96-well plates were mixed gently with 10 μl of CCK-8 and cultured in an incubator for 2-3 hours under the conditions of 37° C. and 5% CO2. The OD value per well was measured at 450 nm on a Victor3 microplate reader.
# as §1
# [2] = Pharmacokinetics assay in rats, intragastric administration; format: in vivo; conditions: Sprague-Dawley, rat, in vivo, po, male SD rats, 5 mg/kg; for Vd/F: read-out: Apparent Distribution Volume Vz/F; for AUC: read-out: Area Under Curve AUC; for CL/F: read-out: Clearance CLz/F; for half-life: read-out: Half-Life T½ (converted); for MRT: read-out: Mean Residence Time MRT; for Cmax: read-out: Plasma Conc. Cmax
# Experimental: Male rats were used as test animals. The compounds of Example 6, Example 9, Example 11, Example 13, Example 15, Example 16, Example 17, Example 44, and Example 45 were administered intragastrically to rats to determine the drug concentration in plasma at different time points by LC/MS/MS method. The pharmacokinetic behavior of the compounds of the present invention was studied and evaluated in rats.
# 27 healthy adult male Sprague-Dawley (SD) rats, purchased from SINO-BRITISH SIPPR/BK LAB. ANIMAL LTD., CO, Certificate No.: SCXK (Shanghai) 2008-0016, were divided into 9 groups, with 3 rats in each group.
# The appropriate amount of test compounds was weighed and mixed with 0.5% CMC-Na to prepare a 0.5 mg/mL suspension by an ultrasonic method.
# After an overnight fast, 27 SD rats were divided into 9 groups, and administered the compounds intragastrically at a dose of 5.0 mg/kg and an administration volume of 10 mL/kg.
# Compounds of Example 6, Example 9, Example 11, Example 13, Example 15, Example 16, Example 17, Example 44, and Example 45 were administered intragastrically to rats. Blood samples (0.1 mL) were taken from the orbital sinus before administration, and at 0.5 h, 1.0 h, 2.0 h, 3.0 h, 4.0 h, 6.0 h, 8.0 h, 11.0 h, and 24.0 h after administration, stored in heparinized tubes, and centrifuged for 5 minutes at 3,500 rpm to separate blood plasma. The plasma samples were stored at −20° C. The rats were fed 2 hours after administration.
# The concentration of the different test compounds in rat plasma after intragastrically administering the test compounds was determined by LC-MS/MS method. The linearity of the method is 1.00-2000 ng/ml. Plasma samples were analyzed after protein precipitation was accomplished by the addition of methanol.
# [3] = LNCaP cells, 1 nM testosterone medium, 4 days of incubation, PSA kit OD450
structure (smiles),measurement,setting,value
"CC1(C)C(=O)N(c2ccc(C#N)c(C(F)(F)F)c2)C(=S)N1c1ccc(O[C@@H]2COC[C@H]2O)c(F)c1 (racemic) [Example 7, 4-(3-(3-Fluoro-4-(((3R,4R/3S,4S)-4-hydroxytetrahydrofuran-3-yl)oxy)phenyl)-4,4-dimethyl-5-oxo-2-thioxoimidazolidin-1-yl)-2-(trifluoromethyl)benzonitrile]",IC50,[1]; LNCaP,23 nM
"CC1(C)C(=O)N(c2ccc(C#N)c(C(F)(F)F)c2)C(=S)N1c1ccc(O[C@@H]2COC[C@H]2O)cc1 (racemic) [Example 14, 4-(3-(4-(((3R,4R/3S,4S)-4-Hydroxytetrahydrofuran-3-yl)oxy)phenyl)-4,4-dimethyl-5-oxo-2-thioxoimidazolidin-1-yl)-2-(trifluoromethyl)benzonitrile]",IC50,[1]; LNCaP,19 nM
"CC1(C)C(=O)N(c2ccc(C#N)c(C(F)(F)F)c2)C(=S)N1c1ccc(O[C@@H]2CCOC2)c(F)c1 [Example 1, (R)-4-(3-(3-Fluoro-4-((tetrahydrofuran-3-yl)oxy)phenyl)-4,4-dimethyl-5-oxo-2-thioxoimidazolidin-1-yl)-2-(trifluoromethyl)benzonitrile]",IC50,[1]; [3],34 nM
same,IC50,LNCaP cells,195 nM
"CC1(C)C(=O)N(c2ccc(C#N)c(C(F)(F)F)c2)C(=S)N1c1ccc(O[C@H]2CCOC2)c(F)c1 [Example 2, (S)-4-(3-(3-Fluoro-4-((tetrahydrofuran-3-yl)oxy)phenyl)-4,4-dimethyl-5-oxo-2-thioxoimidazolidin-1-yl)-2-(trifluoromethyl)benzonitrile]",IC50,[1]; [3],45 nM
same,IC50,LNCaP cells,97 nM
"CC1(C)C(=O)N(c2ccc(C#N)c(C(F)(F)F)c2)C(=S)N1c1ccc(OC(F)F)c(F)c1 [Example 3, 4-(3-(4-(Difluoromethoxy)-3-fluorophenyl)-4,4-dimethyl-5-oxo-2-thioxoimidazolidin-1-yl)-2-(trifluoromethyl)benzonitrile]",IC50,[1]; [3],35 nM
same,IC50,LNCaP cells,46 nM
"CC1(C)C(=O)N(c2ccc(C#N)c(C(F)(F)F)c2)C(=S)N1c1ccc(OC2CCOCC2)c(F)c1 [Example 4, 4-(3-(3-Fluoro-4-((tetrahydro-2H-pyran-4-yl)oxy)phenyl)-4,4-dimethyl-5-oxo-2-thioxoimidazolidin-1-yl)-2-(trifluoromethyl)benzonitrile]",IC50,[1]; [3],93 nM
"CC1(C)C(=O)N(c2ccc(C#N)c(C(F)(F)F)c2)C(=S)N1c1ccc(OCC2(O)CC2)c(F)c1 [Example 5, 4-(3-(3-Fluoro-4-((1-hydroxycyclopropyl)methoxy)phenyl)-4,4-dimethyl-5-oxo-2-thioxoimidazolidin-1-yl)-2-(trifluoromethyl)benzonitrile]",IC50,[1]; [3],124 nM
same,IC50,LNCaP cells,87 nM
"CC1(C)C(=O)N(c2ccc(C#N)c(C(F)(F)F)c2)C(=S)N1c1ccc(OCC2(N)CC2)nc1 [Example 11, 4-(3-(6-((1-Aminocyclopropyl)methoxy)pyridin-3-yl)-4,4-dimethyl-5-oxo-2-thioxoimidazolidin-1-yl)-2-(trifluoromethyl)benzonitrile]",IC50,[1]; LNCaP,35 nM
same,Vd/F,[2],9.94 ± 0.633 L/kg
same,AUC,[2],11400 ± 1380 ng·h/mL
same,CL/F,[2],7.35 ± 0.87 mL/min/kg
same,half-life,[2],15.8 ± 2.2 h
same,MRT,[2],23.2 ± 2.9 h
same,Cmax,[2],430 ± 14 ng/mL
"CC1(C)C(=O)N(c2ccc(C#N)c(C(F)(F)F)c2)C(=S)N1c1ccc(O[C@H]2COC[C@@H]2O)cc1 [Example 16, 4-(3-(4-(((3S,4S)-4-hydroxytetrahydrofuran-3-yl)oxy)phenyl)-4,4-dimethyl-5-oxo-2-thioxoimidazolidin-1-yl)-2-(trifluoromethyl)benzonitrile]",IC50,[1]; LNCaP,12 nM
same,Vd/F,[2],3.59 ± 0.662 L/kg
same,AUC,[2],23300 ± 5900 ng·h/mL
same,CL/F,[2],3.71 ± 0.84 mL/min/kg
same,half-life,[2],11.3 ± 1.3 h
same,MRT,[2],18.4 ± 2.6 h
same,Cmax,[2],971 ± 147 ng/mL
"CC1(C)C(=O)N(c2ccc(C#N)c(C(F)(F)F)c2)C(=S)N1c1ccc(OCCO)cc1 [Example 17, 4-(3-(4-(2-Hydroxyethoxy)phenyl)-4,4-dimethyl-5-oxo-2-thioxoimidazolidin-1-yl)-2-(trifluoromethyl)benzonitrile]",IC50,[1]; LNCaP,24 nM
same,Vd/F,[2],3.76 ± 0.591 L/kg
same,AUC,[2],12200 ± 1520 ng·h/mL
same,CL/F,[2],6.88 ± 0.89 mL/min/kg
same,half-life,[2],6.31 ± 0.5 h
same,MRT,[2],10.8 ± 0.8 h
same,Cmax,[2],864 ± 86 ng/mL
"CC1(C)C(=O)N(c2ccc(C#N)c(C(F)(F)F)c2)C(=S)N1c1ccc(OC2CCNCC2)c(F)c1 [Example 19, 4-(3-(3-Fluoro-4-((piperidin-4-yl)oxy)phenyl)-4,4-dimethyl-5-oxo-2-thioxoimidazolidin-1-yl)-2-(trifluoromethyl)benzonitrile]",IC50,[1]; [3],94 nM
same,IC50,LNCaP cells,194 nM
"CN1CC[C@H](Oc2ccc(N3C(=S)N(c4ccc(C#N)c(C(F)(F)F)c4)C(=O)C3(C)C)cc2F)C1 [Example 27, (S)-4-(3-(3-Fluoro-4-((1-methylpyrrolidin-3-yl)oxy)phenyl)-4,4-dimethyl-5-oxo-2-thioxoimidazolidin-1-yl)-2-(trifluoromethyl)benzonitrile]",IC50,[1]; [3],83 nM
"Cc1cc(N2C(=O)C(C)(C)N(c3ccc(OCC4(N)CC4)c(F)c3)C2=S)ccc1C#N [Example 38, 4-(3-(4-((1-Aminocyclopropyl)methoxy)-3-fluorophenyl)-4,4-dimethyl-5-oxo-2-thioxoimidazolidin-1-yl)-2-methylbenzonitrile]",IC50,[1]; [3],33 nM
"CC(=O)N1CC(O)C(Oc2ccc(N3C(=S)N(c4ccc(C#N)c(C(F)(F)F)c4)C(=O)C3(C)C)cc2F)C1 (stereo not shown) [Example 46, 4-(3-(4-((1-Acetyl-4-hydroxypyrrolidin-3-yl)oxy)-3-fluorophenyl)-4,4-dimethyl-5-oxo-2-thioxoimidazolidin-1-yl)-2-(trifluoromethyl)benzonitrile]",IC50,[1]; [3],47 nM
"CN1CC(O)C(Oc2ccc(N3C(=S)N(c4ccc(C#N)c(C(F)(F)F)c4)C(=O)C3(C)C)cc2F)C1 (stereo not shown) [Example 47, 4-(3-(3-Fluoro-4-((4-hydroxy-1-methylpyrrolidin-3-yl)oxy)phenyl)-4,4-dimethyl-5-oxo-2-thioxoimidazolidin-1-yl)-2-(trifluoromethyl)benzonitrile]",IC50,[1]; [3],21 nM
"CC1(C)C(=O)N(c2ccc(C#N)c(C(F)(F)F)c2)C(=S)N1c1ccc(OC[C@@H](O)CO)c(F)c1 [Example 49, (S)-4-(3-(4-(2,3-Dihydroxypropoxy)-3-fluorophenyl)-4,4-dimethyl-5-oxo-2-thioxoimidazolidin-1-yl)-2-(trifluoromethyl)benzonitrile]",IC50,[1]; LNCaP,35 nM
"CC1(C)C(=O)N(c2ccc(C#N)c(C(F)(F)F)c2)C(=S)N1c1ccc(OC[C@H](O)CO)c(F)c1 [Example 50, (R)-4-(3-(4-(2,3-Dihydroxypropoxy)-3-fluorophenyl)-4,4-dimethyl-5-oxo-2-thioxoimidazolidin-1-yl)-2-(trifluoromethyl)benzonitrile]",IC50,[1]; LNCaP,43 nM
